In patent publication US20120045501A1, “CONNEXIN ENHANCES CHEMOTHERAPY-INCLUDED APOPTOSIS IN HUMAN CANCER CELLS INHIBITING TUMOR CELL PROLIFERATION” (Northwest Hospital, priority 2001, published 2012):
Values joined by “and” are separate entries in the source; they are usually repeats but may differ in a detail not shown here. Equal entries are not always repeated.

Tests used:
U251N23 cells [1] = test: Apoptosis, Hoechst dye stain; assay type: cell-based, human; conditions: U251N23, 1 μM VP16, D4
Experimental: The assay was performed as we previously described (Huang et al., Cell Death Differ. 5:96-106 (1998)). Briefly, cells were fixed in Carnoy's solution (methanol:glacial […]; 3:1) and stained with 5 μg/ml of bisbenzimide trihydrochloride (Hoechst 33258) for 20 min. The morphology of nuclei was then observed with a Zeiss (Thornwood, N.Y.) photomicroscope II. At least 500 nuclei in each cell line were counted. Experiments were repeated four times.
(§1) It was next determined whether the enhanced sensitivity to chemotherapeutic agents induced by over-expression of cx43 was associated with the increase of drug-induced apoptosis. Cells collected at various time points post-treatment with 1 μM VP16 were used for apoptosis assays. First, nuclear condensation, chromatin fragmentation and formation of apoptotic bodies were detected by Hoechst 33258 dye staining upon treatment with VP16. […] The results were further confirmed by both 1) TUNEL assay, which detects double- as well as single-stranded DNA breaks during apoptosis by labeling the free 3′-OH termini in an enzymatic reaction (terminal deoxynucleotidyl transferase), and annexin V assay, which detects the exposed phosphotidylserine during apoptosis.

U251N23 cells [2] = test: Clonogenicity (cell survival) assay; assay type: cell-based, human
Experimental: (§2) The surviving cell fraction was determined by clonogenicity assay as previously described (Huang et al., J. Cell Biol. 133:211-220 (1996)). Cells were seeded at a density of 500 cells per 60 mm plate and incubated overnight and then treated with drugs; culture was then continued for 3 weeks. Clones were fixed in 4% formaldehyde-PBS and stained with Giemsa solution. Colonies containing more than 50 cells were counted and the fraction of surviving cells was calculated. The results represented the average of three separate experiments.
(§3) Values at OD 570 reflect the relative number of viable cells.

U251cx43-216 cells [3] = test: Clonogenicity (cell survival) assay; assay type: cell-based, human
Experimental: as §2, §3

U251N2 cells = test: MTT cell viability assay; assay type: cell-based; conditions: Homo sapiens, 144 h, day 6 after treatment, U251N2 (control-transfected)
Experimental: (§4) In vitro viability was determined by the 3-(4,5-dimethylthiazol-2yl)-2,5-diphenyltetrazolium bromide (MTT) colorimetric assay as described in (Huang et al., Cancer Res. 55:5054-5062 (1995)). Cells (1×10^3) were plated in triplicate in 96 well microplates overnight and treated with 5 different concentrations of VP16, Tax and DOX, respectively. […] Absorbance values at 570 nm were plotted as a measure of the relative number of cells. […] Both methods gave the identical results.
as §3

U251N23 cells [4] = test: MTT cell viability assay; assay type: cell-based; conditions: Homo sapiens, 144 h, day 6 after treatment, U251N23 (control-transfected)
Experimental: as §4, §3

U251cx43-217 cells [5] = test: MTT cell viability assay; assay type: cell-based; conditions: Homo sapiens, 144 h, day 6 after treatment, U251cx43-217 (cx43-transfected)
Experimental: as §4, §3

T98Gcx43-220 cells = test: MTT cell viability assay; assay type: cell-based; conditions: Homo sapiens, 144 h, day 6 after treatment, T98Gcx43-220 (cx43-transfected)
Experimental: as §4, §3

T98GN28 cells = test: MTT cell viability assay; assay type: cell-based; conditions: Homo sapiens, 144 h, day 6 after treatment, T98GN28 (control-transfected)
Experimental: as §4, §3

U251cx43-216 cells [6] = test: MTT cell viability assay
U251N23 cells [7] = test: Apoptosis, TUNEL assay; assay type: cell-based, human; conditions: U251N23, 1 μM VP16, D2
Experimental: (§5) Cells (1 to 3×10^5) were seeded onto glass slides in 8-well plates overnight, and then treated with VP16 for 48 hours. Apoptotic cells were then analyzed with a TUNEL-based in situ cell death detection kit (Boehringer-Mannheim, Mannheim, Germany). Fluorescent cells were observed under a fluorescence microscope and viewed as positive cells. The experiment was repeated twice.
as §1

U251cx43-216 cells [8] = test: Apoptosis, TUNEL assay; assay type: cell-based, human; conditions: U251cx43-216, 1 μM VP16, D2
Experimental: as §5, §1

U251N23 cells [9] = test: Apoptosis, annexin V assay; assay type: cell-based, human
Experimental: (§6) Cells, treated or not VP16, were analyzed with the TACS Annexin V-FITC kit (Trevigen, Gaithersburg, Md.) according to manufacturer's instructions. Apoptosis was detected by the appearance of patches of fluorescence on the cell surface.
as §1

U251cx43-216 cells [10] = test: Apoptosis, annexin V assay; assay type: cell-based, human
Experimental: as §6, §1

U251N23 cells [11] = test: Cell-cycle distribution by FACScan; assay type: cell-based, human; conditions: U251N23, VP16 1 × 10^−6 M
Experimental: (§7) Cell-cycle distribution was determined by flow cytometry as described previously (Huang et al., Int. J. Cancer 77:880-886 (1998)). Briefly, cells were seeded in 100 mm plates (5×10^5 per plate), incubated for 24 hours, and then treated with VP16 or vehicle. At days 1 and 2 of treatment, cells were collected, fixed in 70% ethanol and stained with propidium iodine. The DNA content of cells was then analyzed in a fluorescence cell sorter (FACSCalibur, Becton Dickinson, Mountain View, Calif.).
(§8) The possibility was assessed by treatment of the cells with VP16 for 24 and 48 hours, and cell-cycle distribution was then determined by FACScan. […] Although there was a slight decrease of S phase in cx43-transfected cells compared with control transfected cells at 24 hours after VP16 treatment, it was not statistically significant.

U251cx43-216 cells [12] = test: Cell-cycle distribution by FACScan; assay type: cell-based, human; conditions: U251cx43-216, VP16 1 × 10^−6 M
Experimental: as §7, §8

U251cx43-217 cells [13] = test: Cell-cycle distribution by FACScan; assay type: cell-based, human; conditions: U251cx43-217, VP16 1 × 10^−6 M
Experimental: as §7, §8

- IC50 (U251N2 cells): 0.8 µM
- IC50 (U251N23 cells [4]): 0.86 µM
- IC50 (U251cx43-217 cells [5]): 0.33 µM
- IC50 (U251cx43-216 cells [6]; Homo sapiens, 144 h): 0.39 µM
Structure (SMILES): COc1cc([C@@H]2c3cc4c(cc3[C@@H](O[C@@H]3O[C@@H]5CO[C@@H](C)O[C@H]5[C@H](O)[C@H]3O)[C@H]3COC(=O)[C@H]23)OCO4)cc(OC)c1O [VP16, Etoposide]
- Percentage of apoptotic cells, Hoechst stain (U251N23 cells [1]): 8.8% and 8.8 +/− 2.4%
- Colony formation (colonies counted) (U251N23 cells [2]; U251N23, 1 × 10^−7, 3 weeks): 36 +/− 1
- Colony formation (colonies counted) (U251N23 cells [2]; U251N23, 4 × 10^−6, 3 weeks): 9 +/− 1
- Colony formation (colonies counted) (U251N23 cells [2]; U251N23, 4 × 10^−7, 3 weeks): 129 +/− 16
- Colony formation (colonies counted) (U251cx43-216 cells [3]; U251cx43-216, 1 × 10^−7, 3 weeks): 3 +/− 1
- Colony formation (colonies counted) (U251cx43-216 cells [3]; U251cx43-216, 4 × 10^−6, 3 weeks): 2 +/− 1
- Colony formation (colonies counted) (U251cx43-216 cells [3]; U251cx43-216, 4 × 10^−7, 3 weeks): 44 +/− 5
- IC50 (T98Gcx43-220 cells): 0.76 µM
- IC50 (T98GN28 cells): 1.34 µM
- level of toxicity (measured as IC50) in U251cx43-216 relative to U251N23 (U251cx43-216 cells [6]; MTT assay, higher in cx43-transfected cells): about 2 fold
- Percentage of apoptotic cells, TUNNEL assay (U251N23 cells [7]): 1.6 +/− 2.3%
- Percentage of apoptotic cells, TUNNEL assay (U251cx43-216 cells [8]): 13.3 +/− 4.5%
- Percentage of apoptotic cells, annexin stain (U251N23 cells [9]; U251N23, 1 μM VP16, D2): 5.5 +/− 0.7%
- Percentage of apoptotic cells, annexin stain (U251N23 cells [9]; U251N23, 1 μM VP16, D4): 11.5 +/− 2.1%
- Percentage of apoptotic cells, annexin stain (U251cx43-216 cells [10]; U251cx43-216, 1 μM VP16, D2): 24.5 +/− 0.7%
- Percentage of apoptotic cells, annexin stain (U251cx43-216 cells [10]; U251cx43-216, 1 μM VP16, D4): 42.0 +/− 5.6%
- Cell cycle distribution, G1 phase (U251N23 cells [11]; day 1): 7.37%
- Cell cycle distribution, G2 phase (U251N23 cells [11]; day 1): 81.49%
- Cell cycle distribution, S phase (U251N23 cells [11]; day 1): 11.14%
- Cell cycle distribution, G1 phase (U251N23 cells [11]; day 2): 5.78%
- Cell cycle distribution, G2 phase (U251N23 cells [11]; day 2): 94.22%
- Cell cycle distribution, S phase (U251N23 cells [11]; day 2): 0%
- Cell cycle distribution, G1 phase (U251cx43-216 cells [12]; day 1): 10.95%
- Cell cycle distribution, G2 phase (U251cx43-216 cells [12]; day 1): 80.57%
- Cell cycle distribution, S phase (U251cx43-216 cells [12]; day 1): 8.48%
- Cell cycle distribution, G1 phase (U251cx43-216 cells [12]; day 2): 8.44%
- Cell cycle distribution, G2 phase (U251cx43-216 cells [12]; day 2): 90.81%
- Cell cycle distribution, S phase (U251cx43-216 cells [12]; day 2): 0.75%
- Cell cycle distribution, G1 phase (U251cx43-217 cells [13]; day 1): 12.05%
- Cell cycle distribution, G2 phase (U251cx43-217 cells [13]; day 1): 77.84%
- Cell cycle distribution, S phase (U251cx43-217 cells [13]; day 1): 10.11%
- Cell cycle distribution, G1 phase (U251cx43-217 cells [13]; day 2): 11.39%
- Cell cycle distribution, G2 phase (U251cx43-217 cells [13]; day 2): 88.61%
- Cell cycle distribution, S phase (U251cx43-217 cells [13]; day 2): 0%
